Laboratory results as given in BindingDB's records for doi:10.1016/j.chembiol.2011.05.014 (The University of Chicago, 2011).

Molecular target: T1, HTH-type transcriptional regulator MgrA (Staphylococcus aureus, UniProt P0C1S0)
T1 sequence (P0C1S0 whole entry): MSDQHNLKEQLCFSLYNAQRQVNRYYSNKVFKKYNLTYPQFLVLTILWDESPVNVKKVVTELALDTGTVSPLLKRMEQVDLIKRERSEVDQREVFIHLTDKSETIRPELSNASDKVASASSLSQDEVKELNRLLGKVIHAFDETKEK
Assay: Biochemical Assay
Details: pH 7.4
Experimental: A fluorescence anisotropy (FA)-based biochemical assay that monitors MgrA-DNA binding. To determine the binding affinity of MgrA to the labeled DNA, different amounts of MgrA were added into the 96-well format plate.

With `Cc1ccc(C)n1[C@@H](CC(=O)O)c1ccc2c(c1)OCO2` [MgrA inhibitor, 2] the IC50 was 30 µM.
